Publication PMC5909127, “Optimization of a “bump-and-hole” approach to allele-selective BET bromodomain inhibition” (Chemical Science, 2018)

Tests used:
BRD3 BD2 WT = BRD3 BD2 WT (Homo sapiens, UniProt Q15059); test: competitive AlphaLISA; format: binding
Intrinsic Clearance = conditions: mouse liver microsomes
BRD2 BD1 L/V = BRD2 BD1 L/V (Homo sapiens, UniProt P25440, L110V); test: competitive AlphaLISA; format: binding
BRDT BD2 L/V = BRDT BD2 L/V (Homo sapiens, UniProt Q58F21, L306V); test: competitive AlphaLISA; format: binding
BRD2 BD2 WT = BRD2 BD2 WT (Homo sapiens, UniProt P25440); test: competitive AlphaLISA; format: binding
[1] = tested on: L/V BET bromodomains (BD1 and BD2 of BRD2, BRD3 and BRD4); test: competitive AlphaLISA (Bio-JQ1 displacement); format: binding, human
5-HT transporter (h) = 5-HT transporter (h) (Homo sapiens, UniProt P31645); test: CEREP ExpresSProfile; conditions: read-out: Mean % of control specific binding (±SD)
NOP (ORL1) (h) = NOP (ORL1) (h) (Homo sapiens, UniProt P41146); test: CEREP ExpresSProfile; conditions: read-out: Mean % of control specific binding (±SD)
MC4 (h) = MC4 (h) (Homo sapiens, UniProt P32245); test: CEREP ExpresSProfile; conditions: read-out: Mean % of control specific binding (±SD)
Text: (§1) Receptor Reference Compound Mean % of control specific
Receptor & Ion-Channel Screening
CEREP ExpresSProfile panel

mu (MOP) (h) = mu (MOP) (h) (Homo sapiens, UniProt P35372); test: CEREP ExpresSProfile; conditions: read-out: Mean % of control specific binding (±SD)
[2] = biological target: GFP-labelled L/V BRD4 in U2OS cells (Homo sapiens, UniProt O60885, L387V/L94V); test: FRAP; conditions: 200 nM, 2 μM SAHA
EP4 (h) = EP4 (h) (Homo sapiens, UniProt P35408); test: CEREP ExpresSProfile; conditions: read-out: Mean % of control specific binding (±SD)
[3] = tested on: GFP-BRD4 L/V constructs with NF-κB-RE/luc2P reporter in HEK293T cells; test: NF-κB luciferase assay; format: cell-based, human; conditions: 1 µM, inhibiting either individual BD of BRD4
Protocol: To provide additional functional insights into the individual roles of BD1 vs. BD2 beyond chromatin binding, a luciferase assay was developed to monitor the expression of NF-κB target genes, inspired by work of Zou et al.[45] […] This luciferase induction was maintained with L/V mutations (but not L/A), consistent again with more WT-like functionality of L/V compared to L/A (Fig. 9A).
12 – NF-κB Luciferase Assay
Luciferase experiments were performed in human HEK293T cells seeded in a 24-well plate at 100 000 cells in […]
pBABE NF-κB-RE/luc2P reporter plasmid. Cells were transfected using Lipofectamine™ LTX (Invitrogen) with PLUS™ reagent, with each well receiving 0.5 µg of each plasmid, 2.5 µl LTX and 0.5 µl PLUS reagent. The next day cells were treated with compounds, giving a final concentration of 1 µM compound and 0.01% DMSO. 6 hours later cells were washed with PBS, lysed with passive lysis buffer (Promega) and stored at -20°C.
Luciferase activity was measured suing the Promega luciferase assay. In a black 384-well plate 3µl of clarified lysate was mixed with 15µl luciferase assay reagent and after 15 minutes luminescence was measured in a Pherastar FS. […]
NMR spectra were recorded on a Bruker 500 Ultrashield or a Bruker Ascend 400. […] High Resolution Mass Spectra (HRMS) were recorded on a Bruker micrOTOF. […]

[4] = biological target: norepinephrine transporter (h) (Homo sapiens, UniProt P23975); test: CEREP ExpresSProfile; conditions: read-out: Mean % of control specific binding (±SD)
Text: as §1
Receptor & Ion-Channel Screening
CEREP ExpresSProfile panel

sst (non-selective) = test: CEREP ExpresSProfile; format: binding; conditions: 1 µM
5-HT2A (h) = 5-HT2A (h) (Homo sapiens, UniProt P28223); test: CEREP ExpresSProfile; conditions: read-out: Mean % of control specific binding (±SD)
Text: as §1
Receptor & Ion-Channel Screening
CEREP ExpresSProfile panel

CCR1 (h) = CCR1 (h) (Homo sapiens, UniProt P32246); test: CEREP ExpresSProfile; conditions: read-out: Mean % of control specific binding (±SD)
GABA (non-selective) = test: CEREP ExpresSProfile; format: binding; conditions: 1 µM
Na+ channel (site 2) = test: CEREP ExpresSProfile; format: binding; conditions: 1 µM
M1 (h) = M1 (h) (Homo sapiens, UniProt P11229); test: CEREP ExpresSProfile; conditions: read-out: Mean % of control specific binding (±SD)
[5] = tested on: Ca2+ channel (L, verapamil site); test: CEREP ExpresSProfile; format: binding; conditions: 1 µM
M3 (h) = M3 (h) (Homo sapiens, UniProt P20309); test: CEREP ExpresSProfile; conditions: read-out: Mean % of control specific binding (±SD)
NK2 (h) = NK2 (h) (Homo sapiens, UniProt P21452); test: CEREP ExpresSProfile; conditions: read-out: Mean % of control specific binding (±SD)
5-HT3 (h) = 5-HT3 (h) (Homo sapiens, UniProt P46098); test: CEREP ExpresSProfile; conditions: read-out: Mean % of control specific binding (±SD)
5-HT3 (h), sequence (P46098 24-478): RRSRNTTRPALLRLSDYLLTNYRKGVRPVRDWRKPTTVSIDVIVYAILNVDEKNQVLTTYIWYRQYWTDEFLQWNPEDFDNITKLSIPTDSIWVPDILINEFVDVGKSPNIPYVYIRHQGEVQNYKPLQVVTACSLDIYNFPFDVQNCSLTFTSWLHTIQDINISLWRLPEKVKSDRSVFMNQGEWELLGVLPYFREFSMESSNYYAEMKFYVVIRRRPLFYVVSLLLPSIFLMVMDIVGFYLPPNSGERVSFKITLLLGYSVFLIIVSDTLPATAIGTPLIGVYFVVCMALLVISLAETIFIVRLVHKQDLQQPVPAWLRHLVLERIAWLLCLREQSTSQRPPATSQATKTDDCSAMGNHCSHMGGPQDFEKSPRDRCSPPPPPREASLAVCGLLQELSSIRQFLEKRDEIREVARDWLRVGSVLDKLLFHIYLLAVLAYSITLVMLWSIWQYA
Text: as §1
Receptor & Ion-Channel Screening
CEREP ExpresSProfile panel

BRD3 BD2 WT, sequence (Q15059 306-416): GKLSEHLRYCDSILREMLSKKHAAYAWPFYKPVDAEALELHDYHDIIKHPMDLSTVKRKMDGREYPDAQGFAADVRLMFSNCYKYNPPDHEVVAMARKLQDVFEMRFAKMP
MC4 (h), sequence (P32245 whole entry): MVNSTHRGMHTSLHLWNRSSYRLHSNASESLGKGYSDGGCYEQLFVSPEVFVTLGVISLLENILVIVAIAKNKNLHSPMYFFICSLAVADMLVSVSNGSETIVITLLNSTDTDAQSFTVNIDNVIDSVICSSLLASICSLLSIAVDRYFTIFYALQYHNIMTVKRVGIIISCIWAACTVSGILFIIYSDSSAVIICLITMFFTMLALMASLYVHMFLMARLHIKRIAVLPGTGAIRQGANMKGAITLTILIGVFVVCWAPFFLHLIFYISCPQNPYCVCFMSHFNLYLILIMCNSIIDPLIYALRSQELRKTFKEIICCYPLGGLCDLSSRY
M3 (h), sequence (P20309 whole entry): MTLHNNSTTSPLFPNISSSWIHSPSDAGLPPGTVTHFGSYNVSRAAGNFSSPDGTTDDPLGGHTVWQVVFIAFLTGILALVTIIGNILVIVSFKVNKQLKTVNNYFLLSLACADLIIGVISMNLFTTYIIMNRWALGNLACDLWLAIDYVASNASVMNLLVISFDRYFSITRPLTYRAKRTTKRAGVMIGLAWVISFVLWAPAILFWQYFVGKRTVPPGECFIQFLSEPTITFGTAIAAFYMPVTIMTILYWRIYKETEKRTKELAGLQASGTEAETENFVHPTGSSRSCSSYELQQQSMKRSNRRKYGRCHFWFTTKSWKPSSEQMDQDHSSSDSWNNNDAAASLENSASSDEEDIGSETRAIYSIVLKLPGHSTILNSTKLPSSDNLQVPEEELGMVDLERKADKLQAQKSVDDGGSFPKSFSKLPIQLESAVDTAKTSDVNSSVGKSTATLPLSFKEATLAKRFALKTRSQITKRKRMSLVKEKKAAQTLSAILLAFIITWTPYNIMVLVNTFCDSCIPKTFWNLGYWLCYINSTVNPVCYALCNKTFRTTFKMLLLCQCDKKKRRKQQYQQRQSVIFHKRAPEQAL
EP4 (h), sequence (P35408 whole entry): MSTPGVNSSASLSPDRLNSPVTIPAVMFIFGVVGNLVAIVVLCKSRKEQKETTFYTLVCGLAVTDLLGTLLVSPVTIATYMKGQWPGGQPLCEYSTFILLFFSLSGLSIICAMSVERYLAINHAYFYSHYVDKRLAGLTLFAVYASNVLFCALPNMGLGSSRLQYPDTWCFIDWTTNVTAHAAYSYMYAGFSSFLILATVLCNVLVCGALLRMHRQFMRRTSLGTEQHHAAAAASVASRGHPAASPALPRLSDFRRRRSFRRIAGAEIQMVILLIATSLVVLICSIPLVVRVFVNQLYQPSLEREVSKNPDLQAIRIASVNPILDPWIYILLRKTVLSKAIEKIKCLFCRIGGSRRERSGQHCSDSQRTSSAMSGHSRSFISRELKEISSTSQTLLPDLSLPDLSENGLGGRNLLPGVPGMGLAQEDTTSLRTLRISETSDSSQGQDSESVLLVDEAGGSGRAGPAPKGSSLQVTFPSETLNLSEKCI
BRD2 BD2 WT, sequence (P25440 344-455): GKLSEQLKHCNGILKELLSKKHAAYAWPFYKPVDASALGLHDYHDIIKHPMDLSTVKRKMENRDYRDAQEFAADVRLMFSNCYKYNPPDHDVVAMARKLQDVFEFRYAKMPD
NK2 (h), sequence (P21452 whole entry): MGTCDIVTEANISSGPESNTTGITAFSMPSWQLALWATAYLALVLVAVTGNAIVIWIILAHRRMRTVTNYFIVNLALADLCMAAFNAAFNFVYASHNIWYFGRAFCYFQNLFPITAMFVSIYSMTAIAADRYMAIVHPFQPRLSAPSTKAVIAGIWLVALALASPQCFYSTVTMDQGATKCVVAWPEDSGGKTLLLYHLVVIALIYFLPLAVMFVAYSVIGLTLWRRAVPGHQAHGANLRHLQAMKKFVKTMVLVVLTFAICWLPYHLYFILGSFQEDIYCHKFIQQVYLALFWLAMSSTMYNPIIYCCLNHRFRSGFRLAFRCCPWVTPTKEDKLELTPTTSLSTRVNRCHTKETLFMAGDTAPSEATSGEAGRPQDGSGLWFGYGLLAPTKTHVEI
BRD2 BD1 L/V, sequence (P25440 71-176 L110V limits assumed): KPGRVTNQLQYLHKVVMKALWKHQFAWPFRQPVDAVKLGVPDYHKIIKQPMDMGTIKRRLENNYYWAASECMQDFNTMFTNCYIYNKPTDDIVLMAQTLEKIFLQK
NOP (ORL1) (h), sequence (P41146 whole entry): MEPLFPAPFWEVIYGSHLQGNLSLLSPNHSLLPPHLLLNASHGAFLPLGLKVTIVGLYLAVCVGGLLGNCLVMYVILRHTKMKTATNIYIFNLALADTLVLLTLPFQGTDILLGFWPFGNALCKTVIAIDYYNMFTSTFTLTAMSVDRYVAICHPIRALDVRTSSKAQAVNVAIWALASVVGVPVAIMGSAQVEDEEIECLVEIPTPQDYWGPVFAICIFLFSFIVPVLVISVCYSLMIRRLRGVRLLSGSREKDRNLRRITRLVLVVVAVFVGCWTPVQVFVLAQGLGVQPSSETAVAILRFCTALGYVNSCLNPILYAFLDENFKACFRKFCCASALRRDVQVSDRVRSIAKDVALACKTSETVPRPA
norepinephrine transporter (h), sequence (P23975 whole entry): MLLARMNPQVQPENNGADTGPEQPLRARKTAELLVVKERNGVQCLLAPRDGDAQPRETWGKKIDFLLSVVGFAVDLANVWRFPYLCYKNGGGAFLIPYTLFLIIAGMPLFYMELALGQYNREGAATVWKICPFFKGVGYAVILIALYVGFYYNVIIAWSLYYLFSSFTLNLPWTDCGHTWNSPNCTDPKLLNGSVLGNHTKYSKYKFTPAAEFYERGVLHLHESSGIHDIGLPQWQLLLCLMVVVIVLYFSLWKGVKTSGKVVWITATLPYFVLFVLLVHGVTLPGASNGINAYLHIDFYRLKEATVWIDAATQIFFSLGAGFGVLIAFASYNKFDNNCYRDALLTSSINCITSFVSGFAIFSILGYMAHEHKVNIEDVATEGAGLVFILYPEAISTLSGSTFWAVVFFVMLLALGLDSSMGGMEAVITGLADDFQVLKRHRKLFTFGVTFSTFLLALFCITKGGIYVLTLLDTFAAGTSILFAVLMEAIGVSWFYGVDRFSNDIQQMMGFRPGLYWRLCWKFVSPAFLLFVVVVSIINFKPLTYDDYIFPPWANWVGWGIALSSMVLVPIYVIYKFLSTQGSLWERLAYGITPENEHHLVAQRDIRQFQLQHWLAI
CCR1 (h), sequence (P32246 whole entry): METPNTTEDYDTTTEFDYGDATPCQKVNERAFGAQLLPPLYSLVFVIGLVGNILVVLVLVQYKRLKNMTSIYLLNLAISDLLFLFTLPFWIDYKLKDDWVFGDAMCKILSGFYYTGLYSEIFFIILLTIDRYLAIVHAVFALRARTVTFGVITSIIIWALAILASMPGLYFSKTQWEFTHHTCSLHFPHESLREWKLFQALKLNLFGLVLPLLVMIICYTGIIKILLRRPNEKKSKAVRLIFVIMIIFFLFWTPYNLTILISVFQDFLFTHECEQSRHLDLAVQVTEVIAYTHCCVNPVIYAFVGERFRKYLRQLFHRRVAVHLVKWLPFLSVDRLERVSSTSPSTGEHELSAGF
5-HT2A (h), sequence (P28223 whole entry): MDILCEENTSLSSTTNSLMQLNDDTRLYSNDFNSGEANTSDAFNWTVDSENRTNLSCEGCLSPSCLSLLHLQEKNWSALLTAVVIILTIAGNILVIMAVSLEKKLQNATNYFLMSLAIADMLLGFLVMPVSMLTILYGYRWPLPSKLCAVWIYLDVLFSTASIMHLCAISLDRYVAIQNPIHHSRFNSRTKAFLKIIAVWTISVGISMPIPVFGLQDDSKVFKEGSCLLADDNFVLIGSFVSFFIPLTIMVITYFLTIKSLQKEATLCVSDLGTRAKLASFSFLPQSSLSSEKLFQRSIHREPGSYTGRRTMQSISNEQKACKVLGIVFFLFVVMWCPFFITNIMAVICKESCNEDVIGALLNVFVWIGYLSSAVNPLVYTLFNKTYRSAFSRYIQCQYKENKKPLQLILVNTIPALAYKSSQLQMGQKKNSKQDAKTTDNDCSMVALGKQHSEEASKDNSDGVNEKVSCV
M1 (h), sequence (P11229 whole entry): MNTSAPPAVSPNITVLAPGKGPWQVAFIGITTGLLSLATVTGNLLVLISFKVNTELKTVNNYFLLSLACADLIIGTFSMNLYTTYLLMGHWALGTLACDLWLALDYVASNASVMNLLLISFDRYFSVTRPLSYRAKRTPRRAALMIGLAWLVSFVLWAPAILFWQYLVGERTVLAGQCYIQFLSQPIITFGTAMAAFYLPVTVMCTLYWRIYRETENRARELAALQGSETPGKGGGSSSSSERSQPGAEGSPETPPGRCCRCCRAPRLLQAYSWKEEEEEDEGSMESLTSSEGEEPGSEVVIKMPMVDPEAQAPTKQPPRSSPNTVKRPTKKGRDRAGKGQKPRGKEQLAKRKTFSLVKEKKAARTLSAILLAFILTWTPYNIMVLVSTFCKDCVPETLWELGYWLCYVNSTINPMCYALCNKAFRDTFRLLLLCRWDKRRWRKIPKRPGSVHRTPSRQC

CC[C@@H](C(=O)OC)[C@@H]1N=C(c2ccc(Cl)cc2)c2ccc(OC)cc2-n2c(C)nnc21 (racemic) [Compound 8]
IC50 (BRD3 BD2 WT): 3.98 µM | CL int (Intrinsic Clearance): 4.1 ml min^–1 g^–1 | IC50 (BRD2 BD1 L/V): 316 nM | IC50 (BRDT BD2 L/V): 398 nM | IC50 (BRD2 BD2 WT): 3.98 µM | AlphaLISA pIC50 ± SD Δ ([1]; L/V minus WT): 1.4 ± 0.2 | AlphaLISA pIC50 ± SD L/V ([1]; mean and SD of all somatic bromodomains, active enantiomer concentration): 6.8 ± 0.2

COC(=O)[C@H](C)[C@@H]1N=C(c2ccc(Cl)cc2)c2ccc(OC)cc2-n2c(C)nnc21 [(2R,3S)-7]
remaining activity at 1 µM (5-HT transporter (h)): 96% | remaining activity at 1 µM (NOP (ORL1) (h)): 94% | remaining activity at 1 µM (MC4 (h)): 89% | remaining activity at 1 µM (mu (MOP) (h)): 119% | displacement of L/V BRD4 (FRAP) [2]: almost complete displacement | remaining activity at 1 µM (EP4 (h)): 93% | effect on NF-κB signalling [3]: strongly impacted on NF-κB signalling | remaining activity at 1 µM [4]: 88% | Mean % of control specific binding (±SD) (sst (non-selective)): 108 (6) % | remaining activity at 1 µM (5-HT2A (h)): 100% | remaining activity at 1 µM (CCR1 (h)): 102% | Mean % of control specific binding (±SD) (GABA (non-selective)): 110 (1) % | Mean % of control specific binding (±SD) (Na+ channel (site 2)): 105 (6) % | remaining activity at 1 µM (M1 (h)): 104% | Mean % of control specific binding (±SD) [5]: 108 (6) % | remaining activity at 1 µM (M3 (h)): 101% | remaining activity at 1 µM (NK2 (h)): 101% | remaining activity at 1 µM (5-HT3 (h)): 96%
